Assay results reported in patent US20200276258A1, “PHARMACEUTICAL COMPOSITION FOR CONTROLLING BLOOD SUGAR” (BEIJING HEBABIZ BIOTECHNOLOGY CO., Inc., priority 2017, published 2020).
Structures can show the parent of a compound that is named as a salt.

What was measured:
[1] = test system: type 2 diabetes rat model (high-fat and high-sugar feed + streptozotocin); test: Pharmacodynamic experiment: biochemical indexes of rat model after 4 weeks of administration; format: in vivo, Wistar rats; conditions: model rats
From the text: (§1) Wistar rats were bred adaptively for 1 week. The subjects were randomly divided into the normal Control group (10) and the modeling group (60) according to their body weight from the second week. The normal Control group (Control) was fed with basic feed, and the model group was fed with high-fat and high-sugar feed. […] On the 9th weekend, rats fasted overnight, measured FBG and insulin levels, and calculated the insulin index (ISI). The model would be successfully established if the fasting blood glucose (>) was 11.1 mmol/L and the ISI was decreased. The successfully modeled rats were randomly divided into Model group, Metformin hydrochloride group, HH003 group, and HH003B group, with 10 rats in each group. […] Fasting but gave water after the last dose, and then weighted the rats after 12 hours. Detected the content of fasting insulin (Insulin), separated the serum, detected the high-density lipoprotein (HDL), free fatty acid (FFA) and glycosylated hemoglobin (GHB).

[2] = test system: type 2 diabetes rat model (high-fat and high-sugar feed + streptozotocin); test: Combined drug use experiment (HH003B with Empagliflozin): HbA1c in rat model; format: in vivo, Wistar rats; conditions: model rats
From the text: as §1, with “(GHB). […] Empagliflozin group was given by gavage 1 mg/kg once a day. […] HbA1c was determined at the end of the experiment.” for “(GHB).”

[3] = 4 weeks, metformin hydrochloride 200 mg/kg daily gavage, HH003/HH003B 30% of feed (about 13 g/d/kg)

| SMILES | effect on HDL level, in words ([1]; 4 weeks of administration) | effect on glycosylated hemoglobin GHB level, in words ([1]; 4 weeks of administration, versus Model and Control groups) | effect on the disease condition of type 2 diabetes, in words ([1]; 4 weeks, HH003/HH003B 30% of feed, metformin hydrochloride 200 mg/kg) | FFA (free fatty acid), serum [1, 3] [mmol/L] | GHB (glycosylated hemoglobin) [1, 3] [mmol/L] | HDL (high-density lipoprotein), serum [1, 3] [mmol/L] | Insulin (fasting insulin) ([1]; 4 weeks, metformin hydrochloride 200 mg/kg daily gavage, HH003/HH003B 30% of feed (about 13 g/d/kg), 12 h fasting, mean ± spread) [uIU/ml] | HbA1c (glycosylated hemoglobin) ([2]; 4 weeks, Empagliflozin 1 mg/kg gavage once a day, HH003B 15% of feed (about 7 g/d/kg), combination both) [mg/dL] | effect on glycosylated hemoglobin, in words ([2]; Empagliflozin 1 mg/kg, HH003B reduced dose (15% of feed)) |
| --- | --- | --- | --- | --- | --- | --- | --- | --- | --- |
| CN(C)C(=N)N=C(N)N [Metformin, metformin hydrochloride] | significantly increase HDL level | significantly reduce the GHB level of the rats but still significantly higher than that of the normal rats | only improve the disease condition of type 2 diabetes to a certain extent | 0.56 ± 0.03 | 15.07 ± 0.85 | 0.74 ± 0.15 | 31.15 ± 6.28 | – | – |
| OC[C@H]1O[C@@H](c2ccc(Cl)c(Cc3ccc(O[C@H]4CCOC4)cc3)c2)[C@H](O)[C@@H](O)[C@@H]1O [Empagliflozin] | – | – | – | – | – | – | – | 7.01 ± 0.17 | no effect |
